Test results published in patent publication US20200308539A1, “AFFINITY-TAGGED PHOTOSWITCHES AND METHODS OF USE THEREOF” (The Regents of the University of California, priority 2017, published 2020).

Assays:
mGluR5 [1] = target: T1, mGluR5 (Homo sapiens, UniProt P41594); experiment: Calcium waves (FLUO-4) in HEK293 cells expressing mGluR5; assay type: cell-based; conditions: HEK293 cells expressing mGluR5, FLUO-4
T1 construct: expressed in transfected cells; host or cells: HEK293 cells
Method: (§1) However, the goal was to target the native, unmodified proteins in cells, tissues or the intact organism, and this would require the affinity moiety to attach directly to the target protein, something that could impact function of the target protein. […] This notion was tested by asking whether there would be a functional impact of nanobody binding to an mGluR. For this purpose, mGluR5 was selected. mGluR5 is a Gq-coupled receptor whose activation stimulates phospholipase C to generate IP3 and trigger the release of calcium from internal stores, which could detect with the calcium indicator FLUO-4 that was loaded into the cells in its AM ester form. […] The activation of the receptor by NB-8260 could be directly detected using single molecule fluorescence resonance energy transfer (smFRET). SNAP-mGluR5 dimers labeled in HEK293 cells with a mixture of FRET donor and acceptor (green and red) BG dyes were isolated by cell lysis and immune-purified and immobilized at low density on a passivated glass surface (FIG. 6A) for total internal reflection fluorescence (TRIF) microscopy. Individual spots containing both the green and red dye (i.e. one on each subunit of the dimer) were selected for analysis and FRET levels measured: i) in the absence of ligand; ii) in 0.8 mM glutamate; iii) in the presence of a nanobody; or iv) in a combination of 0.8 mM glutamate and the nanobody. […]

mGluR5 [2] = experiment: Single molecule FRET (smFRET) of SNAP-mGluR5 dimers, TIRF microscopy; assay type: biochemical; conditions: 0.8 mM glutamate; absence of ligand ~0.5
Method: as §1

T1 sequence (P41594 21-1212): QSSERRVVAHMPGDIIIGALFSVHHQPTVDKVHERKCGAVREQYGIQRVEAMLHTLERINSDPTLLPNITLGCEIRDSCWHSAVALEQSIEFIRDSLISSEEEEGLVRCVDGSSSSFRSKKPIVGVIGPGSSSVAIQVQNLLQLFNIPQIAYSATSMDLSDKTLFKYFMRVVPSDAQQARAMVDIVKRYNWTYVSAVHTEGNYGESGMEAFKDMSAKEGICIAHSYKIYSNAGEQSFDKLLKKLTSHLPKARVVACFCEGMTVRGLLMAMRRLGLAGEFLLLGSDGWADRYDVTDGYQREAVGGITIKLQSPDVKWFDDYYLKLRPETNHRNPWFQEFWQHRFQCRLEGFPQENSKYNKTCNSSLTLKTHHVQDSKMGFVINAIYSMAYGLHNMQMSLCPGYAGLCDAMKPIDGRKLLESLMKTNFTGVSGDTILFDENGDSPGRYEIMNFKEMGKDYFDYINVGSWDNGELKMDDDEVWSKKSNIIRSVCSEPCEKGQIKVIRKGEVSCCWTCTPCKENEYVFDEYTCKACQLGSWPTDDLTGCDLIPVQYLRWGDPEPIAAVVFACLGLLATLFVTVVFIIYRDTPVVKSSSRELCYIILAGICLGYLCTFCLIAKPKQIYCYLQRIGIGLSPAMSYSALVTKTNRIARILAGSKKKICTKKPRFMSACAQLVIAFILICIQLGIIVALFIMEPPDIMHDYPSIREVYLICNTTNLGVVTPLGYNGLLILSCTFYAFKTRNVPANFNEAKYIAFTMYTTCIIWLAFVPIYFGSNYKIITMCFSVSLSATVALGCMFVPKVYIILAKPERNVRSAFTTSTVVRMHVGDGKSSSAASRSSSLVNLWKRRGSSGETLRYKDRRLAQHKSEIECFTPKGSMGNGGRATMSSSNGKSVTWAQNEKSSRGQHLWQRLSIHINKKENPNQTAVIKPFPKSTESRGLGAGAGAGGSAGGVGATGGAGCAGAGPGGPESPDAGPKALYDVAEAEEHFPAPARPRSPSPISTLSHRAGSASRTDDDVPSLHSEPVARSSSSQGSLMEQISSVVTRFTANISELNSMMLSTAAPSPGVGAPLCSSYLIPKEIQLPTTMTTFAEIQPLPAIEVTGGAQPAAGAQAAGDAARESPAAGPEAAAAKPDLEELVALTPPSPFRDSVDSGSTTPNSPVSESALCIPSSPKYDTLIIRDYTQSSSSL

With `N[C@@H](CCC(=O)O)C(=O)O` [glutamate] the “activation of calcium waves” value (mGluR5 [1]) was “activates calcium waves” and the FRET level (mGluR5 [2]) was about 0.3.
